Source: publication PMC8666671, “Fine-tuning spermidine binding modes in the putrescine binding protein PotF” (The Journal of Biological Chemistry, 2021)
Changes are numbered by the printed parent chain. Where “and” joins values, the source holds several entries; their conditions need not be identical. Equal entries are not always repeated.

What was measured:
[1] = molecular target: T1, PotF/D–E39D–Y87S (Escherichia coli, UniProt P31133, A182D/D247S/F276W/L348Q/S38T); experiment: ITC, PotF/D–E39D–Y87S; format: binding; details: 293 K
T1 construct: without the N-terminal signal peptide; made in house; host or cells: E. coli BL21 (DE3)
T1 sequence (P31133 27-370 S38T/A182D/D247S/F276W/L348Q): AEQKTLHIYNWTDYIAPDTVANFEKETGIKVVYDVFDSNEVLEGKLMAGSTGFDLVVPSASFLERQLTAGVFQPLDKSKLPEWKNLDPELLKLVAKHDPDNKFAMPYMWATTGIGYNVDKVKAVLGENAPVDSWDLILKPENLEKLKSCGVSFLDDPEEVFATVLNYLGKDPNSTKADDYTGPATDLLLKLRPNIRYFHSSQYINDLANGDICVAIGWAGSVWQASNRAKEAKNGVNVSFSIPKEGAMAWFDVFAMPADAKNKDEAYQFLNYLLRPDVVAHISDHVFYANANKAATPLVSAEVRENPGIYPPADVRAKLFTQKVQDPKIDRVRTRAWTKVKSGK
Experimental: (§1) Ligands were always freshly prepared in the exact same buffer as was used for the size exclusion run. Samples were degassed, and temperature was equilibrated using a degassing station (TA Instruments). About 400 μl protein sample of different concentrations (Table S5) depending on affinity was transferred into the sample cell of a nanoITC (TA Instruments), and 50 μl of about tenfold concentrated ligand solution was loaded into the injection needle. Multiple injection measurements were carried out at 293 K, 300 rpm stirring rate, and 250 s spacings between each 2 μl injection. The heat quantity past injection was determined by integration of the measured peaks. Every protein–ligand combination was measured as biological triplicate. Subtraction of heat of dilution measurements, peak integration, and one site binding fits were done with NanoAnalyze (TA Instruments). Reported errors are the errors between fits of the measured triplicates.

[2] = molecular target: T2, PotF/D–E39D–F88A (Escherichia coli, UniProt P31133, A182D/D247S/F276W/F88A/L348Q/S38T/S87Y); experiment: ITC, PotF/D–E39D–F88A; format: binding; details: 293 K
T2 construct: without the N-terminal signal peptide; made in house; host or cells: E. coli BL21 (DE3)
T2 sequence (P31133 27-370 S38T/S87Y/F88A/A182D/D247S/F276W/L348Q): T1 sequence (P31133 27-370 S38T/A182D/D247S/F276W/L348Q) with S61Y, F62A
Experimental: as §1

[3] = molecular target: T3, PotF/D–E39D–F88L (Escherichia coli, UniProt P31133, A182D/D247S/F276W/F88L/L348Q/S38T/S87Y); experiment: ITC, PotF/D–E39D–F88L; format: binding; details: 293 K
T3 construct: without the N-terminal signal peptide; made in house; host or cells: E. coli BL21 (DE3)
T3 sequence (P31133 27-370 S38T/S87Y/F88L/A182D/D247S/F276W/L348Q): T1 sequence (P31133 27-370 S38T/A182D/D247S/F276W/L348Q) with S61Y, F62L
Experimental: as §1

[4] = molecular target: T4, PotF/D–E39D–Y87S–F88Y (Escherichia coli, UniProt P31133, A182D/D247S/F276W/F88Y/L348Q/S38T); experiment: ITC, PotF/D–E39D–Y87S–F88Y; format: binding; details: 293 K
T4 construct: without the N-terminal signal peptide; made in house; host or cells: E. coli BL21 (DE3)
T4 sequence (P31133 27-370 S38T/F88Y/A182D/D247S/F276W/L348Q): T1 sequence (P31133 27-370 S38T/A182D/D247S/F276W/L348Q) with F62Y
Experimental: as §1

[5] = molecular target: T5, PotF/D–S247D (Escherichia coli, UniProt P31133, A182D/D39E/F276W/L348Q/S38T/S87Y); experiment: ITC, PotF/D–S247D; format: binding; details: 293 K
T5 construct: without the N-terminal signal peptide; made in house; host or cells: E. coli BL21 (DE3)
T5 sequence (P31133 27-370 S38T/D39E/S87Y/A182D/F276W/L348Q): T1 sequence (P31133 27-370 S38T/A182D/D247S/F276W/L348Q) with D13E, S61Y, S221D
Experimental: as §1

[6] = test system: PotD; details: cited from earlier work
[7] = ITC, 50 mM Tris pH 8, 300 mM NaCl, biological triplicates

NCCCCNCCCN [SPD, spermidine]
n ([1]; ITC binding stoichiometry): 0.98 ± 0.01 | ΔG ([1]; ITC): -6.74 ± 0.06 kcal/mol | ΔH ([1]; ITC): -6.56 ± 0.13 kcal/mol | −TΔS ([1]; ITC): -0.18 ± 0.19 kcal/mol | Kd [1, 7]: 9.4 µM and 9.44 µM | n ([2]; ITC binding stoichiometry): 0.98 ± 0.03 | ΔG ([2]; ITC): -6.73 ± 0.03 kcal/mol | ΔH ([2]; ITC): -12.22 ± 0.35 kcal/mol | −TΔS ([2]; ITC): 5.49 ± 0.36 kcal/mol | Kd [2, 7]: 9.6 ± 0.54 µM | n ([3]; ITC binding stoichiometry): 1.03 ± 0.01 | ΔG ([3]; ITC): -6.71 ± 0.03 kcal/mol | ΔH ([3]; ITC): -12.31 ± 0.11 kcal/mol | −TΔS ([3]; ITC): 5.60 ± 0.13 kcal/mol | Kd [3, 7]: ~9.9 µM and 9.9 µM | n ([4]; ITC binding stoichiometry): 0.99 ± 0.02 | ΔG ([4]; ITC): -7.09 ± 0.15 kcal/mol | ΔH ([4]; ITC): -7.81 ± 0.21 kcal/mol | −TΔS ([4]; ITC): 0.71 ± 0.32 kcal/mol | Kd [4, 7]: ~5.3 µM and 5.3 µM and 5.32 µM | n ([5]; ITC binding stoichiometry): 0.94 ± 0.01 | ΔG ([5]; ITC): -6.77 ± 0.18 kcal/mol | ΔH ([5]; ITC): -6.76 ± 0.08 kcal/mol | −TΔS ([5]; ITC): -0.01 ± 0.25 kcal/mol | Kd [5, 7]: ~9.4 µM and 9.4 µM and 9.43 µM | ΔG ([6]; ITC): -11.13 ± 0.12 kcal/mol | ΔH ([6]; ITC): -16.40 ± 1.4 kcal/mol | −TΔS ([6]; ITC): 5.24 ± 1.39 kcal/mol | Kd [6]: ~0.006 µM
